According to patent US20200009121A1, “Purpose for Soothing Brain Disorders of Patients from Drug Detoxification Using Biperiden HCL” (priority 2018, published 2020):
Structures can show the parent of a compound that is named as a salt.

System: brain disorders of patients from drug detoxification
Experiment: Biperiden Hcl given to patients after block-out of poisoning pathway (drug detoxification) treatment
Format: in vivo
Details: dose 10 mg/ml
Protocol: A Biperiden Hcl 10 medicine of the disclosure is a cure of Parkinson's disease and can reduce effect of acetylcholine of Extrapyramidal Symptoms (EPS) on it to further decrease excitement of central nervous. […] With reference to FIG. 1, a Biperiden Hcl 10 medicine is applied after patients are treated with block-out of poisoning pathway, wherein poisoning pathway treatment 20 can adapt intravenous drip prescription 30 disclosed in U.S. utility patent application Ser. No.10/004,781 owned by the inventor(s) and purpose treatment thereof, providing the intravenous drip prescription 30 to patients. The intravenous drip prescription 30 comprises a plurality of ingredients consisting of Cerebrolysin, Piracetam, Cimetidine, Scopolamine Butylbromide, Nefopam, B. C Complex, Vitamin B1, Ascorbic acid, Ketorolac, Guronsan, Hyoscien Butylbromide, and Sukerin. After a patient is dealt with poisoning pathway treatment 20, a dose (10 mg/ml) of Biperiden Hcl 10 is provided to the patient to sooth brain disorder of the patient from the poisoning pathway treatment 20 of the patient, capable of rapidly recovering consciousness and normal physiological state.

OC(CCN1CCCCC1)(c1ccccc1)C1CC2C=CC1C2 (stereo not shown) [Biperiden Hcl]
soothing brain disorders of patients and recovering consciousness and normal physiological state: excellent effect of soothing brain disorders of patients and recovering consciousness and normal physiological state
